Activity calls are given as the source filed them. Cut-off read from the data, not from the text of the source, for most assays here: actives have a measured IC50 and inactives only a lower limit.
How the values were obtained:
[1] = alpha-synuclein stem-loop luciferase translation blockers – H4 neuroglioma cells, luminescence, confirmation (AID 1988); assay type: functional, cell-based
[2] = molecular target: T1, Latent membrane protein 1 (Human herpesvirus 4 (strain B95-8), UniProt P03230); assay: LMP1 TES1 pathway selectivity over dsRED control – imaging, HEK293T, dual-color eGFP/dsRED, cherry-picks, selectivity assay for LMP1 NF-kB inhibitor project, dose response (AID 588398); assay type: functional, cell-based
T1 sequence (P03230 whole entry): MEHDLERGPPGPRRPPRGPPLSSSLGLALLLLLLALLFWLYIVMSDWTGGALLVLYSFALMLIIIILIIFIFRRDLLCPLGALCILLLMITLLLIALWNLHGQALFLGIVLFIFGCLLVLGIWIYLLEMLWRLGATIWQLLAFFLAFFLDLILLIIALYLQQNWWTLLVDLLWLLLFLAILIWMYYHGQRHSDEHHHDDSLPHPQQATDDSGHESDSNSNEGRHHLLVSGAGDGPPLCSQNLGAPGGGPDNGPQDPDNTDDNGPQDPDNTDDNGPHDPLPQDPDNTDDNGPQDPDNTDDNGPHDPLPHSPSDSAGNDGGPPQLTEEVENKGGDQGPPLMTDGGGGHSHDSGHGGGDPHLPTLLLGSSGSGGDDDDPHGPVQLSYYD

[3] = Luminescence Cell-Based Dose Response HTS to Identify Inhibitors of 5'UTR Stem-Loop Driven Prion Protein mRNA Translation in H4 Neuroglioblastoma Cells. [Related pubchem assays: 1827 (Project Summary), 1813 (Primary HTS)]; assay type: functional
HEK293 = assay: EBV LMP1 TES2 canonical NF-kB signalling blockers – cell-based, HEK293, luciferase, cherry-pick, dose response (AID 588343); assay type: functional; settings: Homo sapiens
[4] = molecular target: 72 kDa type IV collagenase (Homo sapiens, UniProt P08253); assay: Dose Response validation of uHTS RPN11 inhibitor hits using a MMP-2 Fluorescence assay.; assay type: functional
72 kDa type IV collagenase, sequence (P08253 whole entry): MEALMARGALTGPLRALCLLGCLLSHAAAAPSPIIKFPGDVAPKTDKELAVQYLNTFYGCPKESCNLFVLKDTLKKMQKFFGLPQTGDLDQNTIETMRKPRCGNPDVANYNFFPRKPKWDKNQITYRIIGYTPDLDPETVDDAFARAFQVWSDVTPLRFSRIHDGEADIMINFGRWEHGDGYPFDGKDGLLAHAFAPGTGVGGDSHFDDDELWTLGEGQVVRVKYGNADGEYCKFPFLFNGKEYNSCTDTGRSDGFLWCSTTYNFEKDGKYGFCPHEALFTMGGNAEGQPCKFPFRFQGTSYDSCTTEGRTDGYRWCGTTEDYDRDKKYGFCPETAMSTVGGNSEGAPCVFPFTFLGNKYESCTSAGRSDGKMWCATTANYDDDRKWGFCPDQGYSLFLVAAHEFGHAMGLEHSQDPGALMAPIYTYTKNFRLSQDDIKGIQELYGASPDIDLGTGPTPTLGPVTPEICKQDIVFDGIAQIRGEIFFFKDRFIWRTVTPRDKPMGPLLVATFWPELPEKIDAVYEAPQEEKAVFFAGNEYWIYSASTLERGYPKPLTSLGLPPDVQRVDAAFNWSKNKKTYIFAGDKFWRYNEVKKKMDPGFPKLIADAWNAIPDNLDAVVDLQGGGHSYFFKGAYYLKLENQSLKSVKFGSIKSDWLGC

[5] = molecular target: 26S proteasome non-ATPase regulatory subunit 14 (Homo sapiens, UniProt O00487); assay: inhibition of proteasome subunit RPN11 – biochemical, fluorescence polarization, uHTS hits, confirmation (AID 602368); assay type: functional
26S proteasome non-ATPase regulatory subunit 14, sequence (O00487 whole entry): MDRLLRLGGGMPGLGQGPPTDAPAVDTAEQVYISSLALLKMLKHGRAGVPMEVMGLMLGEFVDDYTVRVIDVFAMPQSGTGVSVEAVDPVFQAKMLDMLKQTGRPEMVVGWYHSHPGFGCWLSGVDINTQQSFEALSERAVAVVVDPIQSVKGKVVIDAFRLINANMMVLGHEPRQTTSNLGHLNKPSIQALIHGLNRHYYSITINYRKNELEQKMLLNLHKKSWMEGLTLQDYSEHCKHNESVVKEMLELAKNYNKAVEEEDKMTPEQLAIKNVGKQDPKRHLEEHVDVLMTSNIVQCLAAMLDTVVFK

Prothrombin = Prothrombin (Bos taurus, UniProt P00735); assay: thrombin protease inhibitors – biochemical, fluorescence polarization, uHTS hits, dose response (AID 602369); assay type: functional
Large T antigen = Large T antigen (Simian virus 40, UniProt P03070); assay type: functional, Betapolyomavirus macacae;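 note: Confirmatory-stage PubChem screen for compounds that inhibit SV40 T antigen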
Large T antigen, sequence (P03070 whole entry): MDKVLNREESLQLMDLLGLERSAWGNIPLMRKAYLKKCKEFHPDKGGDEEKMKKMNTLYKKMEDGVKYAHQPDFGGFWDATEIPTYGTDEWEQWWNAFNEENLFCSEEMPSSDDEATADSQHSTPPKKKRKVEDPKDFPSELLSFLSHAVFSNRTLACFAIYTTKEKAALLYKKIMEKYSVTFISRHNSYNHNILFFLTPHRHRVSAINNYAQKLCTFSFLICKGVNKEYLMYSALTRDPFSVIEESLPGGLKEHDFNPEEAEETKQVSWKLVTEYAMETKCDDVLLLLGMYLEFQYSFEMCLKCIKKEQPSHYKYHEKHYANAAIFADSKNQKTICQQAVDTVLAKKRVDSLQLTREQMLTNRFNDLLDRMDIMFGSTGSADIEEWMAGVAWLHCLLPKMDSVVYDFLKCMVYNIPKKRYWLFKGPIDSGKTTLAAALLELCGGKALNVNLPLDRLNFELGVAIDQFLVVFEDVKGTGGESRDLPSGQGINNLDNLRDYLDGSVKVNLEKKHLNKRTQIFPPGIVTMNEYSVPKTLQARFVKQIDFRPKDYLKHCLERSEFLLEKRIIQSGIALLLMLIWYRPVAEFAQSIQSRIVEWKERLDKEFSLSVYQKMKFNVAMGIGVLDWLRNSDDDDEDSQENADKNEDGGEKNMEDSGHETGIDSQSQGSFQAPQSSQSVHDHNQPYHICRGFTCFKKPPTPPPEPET

[6] = viability of uninfected HEp-2 cells – cell-based, HTS, cytotoxicity control for RSV inhibitor project, dose response (AID 2410); assay type: functional; settings: human respiratory syncytial virus
[7] = molecular target: T2, Apoptotic protease-activating factor 1 (Homo sapiens, UniProt O14727); assay type: functional
T2 sequence (O14727 whole entry): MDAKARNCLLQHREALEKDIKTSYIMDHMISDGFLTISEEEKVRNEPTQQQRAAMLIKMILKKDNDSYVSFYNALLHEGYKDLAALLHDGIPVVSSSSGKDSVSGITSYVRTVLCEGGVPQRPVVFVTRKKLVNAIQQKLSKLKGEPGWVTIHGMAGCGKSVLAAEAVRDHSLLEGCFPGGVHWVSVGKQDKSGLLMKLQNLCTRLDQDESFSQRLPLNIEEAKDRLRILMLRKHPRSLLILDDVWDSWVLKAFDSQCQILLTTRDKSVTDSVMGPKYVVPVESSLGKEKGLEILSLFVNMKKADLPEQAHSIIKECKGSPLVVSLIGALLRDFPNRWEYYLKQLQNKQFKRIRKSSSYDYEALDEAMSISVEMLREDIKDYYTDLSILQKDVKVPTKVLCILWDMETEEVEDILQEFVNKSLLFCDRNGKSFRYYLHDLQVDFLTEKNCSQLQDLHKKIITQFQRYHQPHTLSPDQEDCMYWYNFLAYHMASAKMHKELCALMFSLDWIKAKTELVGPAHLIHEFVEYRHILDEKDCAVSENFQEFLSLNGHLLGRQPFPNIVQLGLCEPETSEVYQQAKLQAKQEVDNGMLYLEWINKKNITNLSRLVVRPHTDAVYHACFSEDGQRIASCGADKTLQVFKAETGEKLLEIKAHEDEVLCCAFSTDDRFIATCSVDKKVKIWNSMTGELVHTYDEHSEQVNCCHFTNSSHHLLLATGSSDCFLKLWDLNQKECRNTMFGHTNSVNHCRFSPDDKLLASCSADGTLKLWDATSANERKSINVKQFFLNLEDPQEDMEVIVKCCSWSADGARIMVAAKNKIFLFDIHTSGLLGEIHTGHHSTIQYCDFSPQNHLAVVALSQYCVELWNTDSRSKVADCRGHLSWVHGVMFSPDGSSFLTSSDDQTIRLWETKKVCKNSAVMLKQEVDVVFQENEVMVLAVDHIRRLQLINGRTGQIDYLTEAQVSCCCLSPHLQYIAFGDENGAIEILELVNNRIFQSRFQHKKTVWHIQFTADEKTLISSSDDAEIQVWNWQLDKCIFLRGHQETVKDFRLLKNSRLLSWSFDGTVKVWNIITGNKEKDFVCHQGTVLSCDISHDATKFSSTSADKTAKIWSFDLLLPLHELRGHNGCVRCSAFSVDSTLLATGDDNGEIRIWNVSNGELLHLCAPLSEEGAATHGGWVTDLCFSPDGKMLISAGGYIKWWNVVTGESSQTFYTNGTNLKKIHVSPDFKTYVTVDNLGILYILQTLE

Caspase-3 [8] = molecular target: T3, Caspase-3 (Homo sapiens, UniProt P42574); assay: SAR Analysis of small molecule inhibitors of Sentrin-specific proteases (SENPs) using a Caspase-3 Selectivity assay. [Related pubchem assays (depositor defined):AID2540, AID2599, AID434973, AID489001]; assay type: functional
T3 sequence (P42574 whole entry): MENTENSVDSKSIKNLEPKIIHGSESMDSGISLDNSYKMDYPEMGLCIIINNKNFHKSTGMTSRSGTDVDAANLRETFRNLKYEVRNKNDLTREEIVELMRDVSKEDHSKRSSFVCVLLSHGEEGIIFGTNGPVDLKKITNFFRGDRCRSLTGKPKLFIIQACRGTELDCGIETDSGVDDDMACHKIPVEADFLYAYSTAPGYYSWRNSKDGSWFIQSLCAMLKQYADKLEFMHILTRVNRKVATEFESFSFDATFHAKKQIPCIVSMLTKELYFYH

[9] = molecular target: T4, Sentrin-specific protease 8 (Homo sapiens, UniProt Q96LD8); assay: inhibition of human SENP8 cleavage activity – biochemical, luminescence, SAR follow-up (AID 504501); assay type: functional
T4 sequence (Q96LD8 whole entry): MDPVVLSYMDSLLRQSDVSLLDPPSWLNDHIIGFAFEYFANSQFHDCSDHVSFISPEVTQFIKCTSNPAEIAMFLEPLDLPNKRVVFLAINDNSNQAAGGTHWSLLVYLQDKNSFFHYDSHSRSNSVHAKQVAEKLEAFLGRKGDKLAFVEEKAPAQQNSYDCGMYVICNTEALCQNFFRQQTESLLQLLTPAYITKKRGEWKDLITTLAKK

[10] = molecular target: T5, Sentrin-specific protease 7 (Homo sapiens, UniProt Q9BQF6); assay: inhibition of human SENP7 cleavage activity – biochemical, luminescence, set 2, SAR follow-up (AID 588600); assay type: functional
T5 sequence (Q9BQF6 whole entry): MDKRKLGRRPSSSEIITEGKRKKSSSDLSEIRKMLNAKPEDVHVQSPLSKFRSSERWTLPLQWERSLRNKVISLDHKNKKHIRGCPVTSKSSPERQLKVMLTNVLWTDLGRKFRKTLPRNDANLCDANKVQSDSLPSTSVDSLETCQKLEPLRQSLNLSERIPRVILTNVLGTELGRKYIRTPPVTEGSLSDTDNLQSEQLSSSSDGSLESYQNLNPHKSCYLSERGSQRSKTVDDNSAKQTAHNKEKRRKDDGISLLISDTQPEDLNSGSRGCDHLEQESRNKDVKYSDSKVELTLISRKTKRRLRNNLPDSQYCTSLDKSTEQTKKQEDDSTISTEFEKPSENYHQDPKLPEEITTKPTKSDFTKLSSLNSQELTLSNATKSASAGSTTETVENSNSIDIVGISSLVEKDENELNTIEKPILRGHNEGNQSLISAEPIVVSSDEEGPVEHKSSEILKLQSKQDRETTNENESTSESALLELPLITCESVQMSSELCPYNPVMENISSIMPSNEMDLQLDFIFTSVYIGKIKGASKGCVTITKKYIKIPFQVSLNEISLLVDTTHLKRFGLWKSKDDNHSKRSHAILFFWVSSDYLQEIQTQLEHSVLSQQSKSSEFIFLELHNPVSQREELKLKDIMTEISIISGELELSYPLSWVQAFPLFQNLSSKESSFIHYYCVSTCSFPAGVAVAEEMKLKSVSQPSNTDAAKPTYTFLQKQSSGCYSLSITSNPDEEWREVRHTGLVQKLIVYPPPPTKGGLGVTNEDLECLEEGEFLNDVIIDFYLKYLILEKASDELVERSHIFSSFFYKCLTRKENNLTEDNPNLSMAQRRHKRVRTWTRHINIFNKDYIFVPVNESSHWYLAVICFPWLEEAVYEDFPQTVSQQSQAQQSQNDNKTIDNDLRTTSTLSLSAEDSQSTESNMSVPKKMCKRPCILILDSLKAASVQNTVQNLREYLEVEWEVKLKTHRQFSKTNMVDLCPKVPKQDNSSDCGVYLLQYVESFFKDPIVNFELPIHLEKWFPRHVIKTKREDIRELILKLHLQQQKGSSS

[11] = molecular target: T4, Sentrin-specific protease 8; assay: inhibition of sentrin protease 8 – biochemical, luminescence, set 2, SAR follow-up (AID 588601); assay type: functional
Caspase-3 [12] = molecular target: T3, Caspase-3; assay: inhibition of recombinant caspase-3 activity – biochemical, luminescence, set 2, selectivity assay for SENP protease inhibitor project, SAR follow-up (AID 588599); assay type: functional
[13] = molecular target: T6, Sentrin-specific protease 6 (Homo sapiens, UniProt Q9GZR1); assay: SAR Analysis of small molecule inhibitors of Sentrin-specific protease 6 (SENP6) using a Luminescent assay. [Related pubchem assays (depositor defined):AID2582, AID2599]; assay type: functional
T6 sequence (Q9GZR1 whole entry): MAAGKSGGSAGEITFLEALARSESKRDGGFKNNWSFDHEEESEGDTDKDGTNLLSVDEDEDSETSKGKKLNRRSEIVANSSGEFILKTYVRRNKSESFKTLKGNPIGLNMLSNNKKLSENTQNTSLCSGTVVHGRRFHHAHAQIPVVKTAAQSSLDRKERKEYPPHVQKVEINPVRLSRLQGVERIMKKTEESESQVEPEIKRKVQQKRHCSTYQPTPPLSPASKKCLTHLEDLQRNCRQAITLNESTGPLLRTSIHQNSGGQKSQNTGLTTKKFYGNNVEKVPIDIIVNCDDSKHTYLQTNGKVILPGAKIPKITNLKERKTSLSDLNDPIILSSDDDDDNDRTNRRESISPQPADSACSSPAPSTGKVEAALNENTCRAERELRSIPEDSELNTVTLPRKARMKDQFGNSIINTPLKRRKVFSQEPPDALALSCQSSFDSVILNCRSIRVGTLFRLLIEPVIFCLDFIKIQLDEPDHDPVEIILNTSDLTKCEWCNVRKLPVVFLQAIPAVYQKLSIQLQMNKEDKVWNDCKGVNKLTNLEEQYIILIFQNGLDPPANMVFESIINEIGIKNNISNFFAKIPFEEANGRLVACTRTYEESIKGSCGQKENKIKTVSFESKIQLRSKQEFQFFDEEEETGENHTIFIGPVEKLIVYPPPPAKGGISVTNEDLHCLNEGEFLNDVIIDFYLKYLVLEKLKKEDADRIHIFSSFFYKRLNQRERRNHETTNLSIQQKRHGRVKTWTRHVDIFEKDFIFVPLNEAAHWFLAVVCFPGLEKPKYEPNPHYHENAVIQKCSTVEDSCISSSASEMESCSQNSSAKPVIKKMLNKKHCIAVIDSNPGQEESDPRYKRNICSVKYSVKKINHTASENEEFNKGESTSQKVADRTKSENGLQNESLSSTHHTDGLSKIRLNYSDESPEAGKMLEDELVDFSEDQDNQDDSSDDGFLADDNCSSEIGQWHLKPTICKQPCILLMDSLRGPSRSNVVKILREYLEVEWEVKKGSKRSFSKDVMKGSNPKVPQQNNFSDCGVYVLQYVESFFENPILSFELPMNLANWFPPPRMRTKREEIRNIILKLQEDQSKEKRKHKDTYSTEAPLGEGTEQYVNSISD

[14] = molecular target: T5, Sentrin-specific protease 7; assay: inhibition of human SENP7 cleavage activity – biochemical, luminescence, SAR follow-up (AID 504497); assay type: functional

For `Cc1ccc(NC(=O)c2ccc3c(c2)OCCO3)nc1`, the EC50 [1] was 8.65 µM (inconclusive), the AC50 [2] was 186 µM (active) and the EC50 [3] was 11.3 µM (active). For the same compound, the AC50 (HEK293) was 2.56 µM (active).

With `CCOc1cc(/C=C2\NC(=S)N(c3c(C)n(C)n(-c4ccccc4)c3=O)C2=O)ccc1O` the IC50 [4] was 9.31 µM (active), the IC50 [5] was 27.9 µM (active) and the IC50 (Prothrombin) was 39.7 µM (active). For the same compound, the IC50 (Large T antigen) was 5.37 µM (active).

With `COc1ccc(-n2nc3ccc(N)cc3n2)cc1Cl` the CC50 [6] was 47.1 µM (active) and the IC50 [7] was > 100 µM (inactive).

For `O=C(Nc1nc2ccc(Cl)cc2s1)c1cccs1`, the IC50 (Caspase-3 [8]) was 2 µM (active), the IC50 [9] was 1.5 µM (active) and the IC50 [10] was 1.39 µM (active). The IC50 [11] was 1.25 µM (active), the IC50 (Caspase-3 [12]) was 2.07 µM (active) and the IC50 [13] was 1.3 µM (active). The IC50 [14] was 1.2 µM (active).

In the case of `CC(=NNC(=S)N1CCCC1)c1ccccn1`, the AC50 [2] is reported as 0.444 µM (active) and the AC50 (HEK293) is reported as 0.0151 µM (active).

With `O=C(CCNS(=O)(=O)c1ccccc1)NCCSc1ccc(Br)cc1` the IC50 [7] was > 100 µM (inactive).
